Reference: patent US5830909A (American Cyanamid Company, priority 1996, dated 1998)
Counter-ions that a name gives are not always drawn.

Assays:
epididymal adipocytes = assay: Epididymal adipocyte cell volume after two weeks oral treatment; type: in vivo, rat; details: 4 rats/group, oral once daily for 2 weeks
Protocol: (§1) Body weight and food intake are monitored daily. At the end of two weeks, the rats are sacrificed and tissues are weighed. Adipocyte membranes are prepared by collagenase digestion, homogenization and centrfugation. […] Of the organs sampled, the combined largest relative and quantitative change in weight was in the adipose tissue.

AII receptor [1] = target: T1, AII receptor (Rattus norvegicus, UniProt P25095); assay: Displacement of 125I[Sar,Ile]AII binding in rat epididymal fat cell membranes
T1 construct: adipose tissue from the epididymal and retroperitoneal depots is quickly excised; from tissue; host or cells: membranes of collagenase-isolated adipocytes from epididymal and retroperitoneal fat of male Sprague-Dawley rats
T1 sequence (P25095 1-359): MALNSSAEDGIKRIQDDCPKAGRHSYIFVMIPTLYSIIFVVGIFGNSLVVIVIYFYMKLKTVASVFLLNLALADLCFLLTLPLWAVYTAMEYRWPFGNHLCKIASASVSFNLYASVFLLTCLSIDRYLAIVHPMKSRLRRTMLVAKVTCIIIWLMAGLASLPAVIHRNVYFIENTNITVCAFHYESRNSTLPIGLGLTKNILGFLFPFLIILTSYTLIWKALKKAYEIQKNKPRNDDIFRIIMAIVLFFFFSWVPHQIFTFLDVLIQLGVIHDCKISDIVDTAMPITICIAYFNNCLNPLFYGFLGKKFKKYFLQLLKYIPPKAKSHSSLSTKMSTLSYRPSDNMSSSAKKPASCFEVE
Excerpt: The experimental design involves determining the binding characteristics of adipocyte membranes harvested from two different anatomic sites at three different ages. Male Sprague-Dawley rats (Charles River Laboratories, Wilmington, Mass.) are used at 40, 70 and 100 days of age. Rats are killed by carbon dioxide inhalation on the morning of the experiment, and adipose tissue from the epididymal and retroperitoneal depots is quickly excised and placed in cold saline. The spermatic artery and vein are removed from the epididymal fat, and brown fat deposits are dissected away from the retroperitoneal depot. The adipose tissue is weighed, minced into small pieces, and approximately 10 g each transferred to a flask containing 25 ml of Krebs-Ringer-bicarbonate buffer (KRB), 6 mM glucose and 50 mg of collagenase, pH 7.4. […] Intact adipocytes dissociated from the tissue pass freely into waiting tubes, while the undigested tissue is trapped on the screen. The tubes containing the adipocytes are washed an additional 4× with 20 ml each of cold Tris buffer (10 mM Tris HCl, pH 8.0) by first allowing the adipocytes to separate from the digestion medium by flotation, removing the infranatant through polyethylene tubing attached to a syringe, resuspending the cells in the Tris buffer, and repeating this procedure. Adipocyte membranes used for binding studies are prepared as follows. […] Following centrifugation, the fat cake and supernatant are carefully removed, and the pellet resuspended in 1 ml of Tris buffer. Protein content of the high speed pellet is determined, the resuspended protein is either assayed immediately or stored at -75° before binding assays are performed. […] The assay is initiated by the addition of the membrane protein, followed by incubation at 22° C. for 30 minutes in a slowly shaking water bath. Separation of bound from free radioactivity is achieved using any appropriate filtration apparatus. We use either a Millipore or Brandel model harvesting apparatus containing a Durapore or Whatman GF/B filter, followed by 6 additional rinses with 5 ml each of cold saline. The filters are placed in tubes, and radioactivity measured in a gamma scintillation counter programmed to correct for the half-life of the isotope. Using this experimental protocol, both the affinity (KD) and number of binding sites (Bmax) for angiotensin II on the adipocyte membrane can be calculated. The relative affinities of different anatomically distinct adipocyte membranes for a variety of peptide and nonpeptide antagonists can also be determined. […] Concentration ranges can be altered dependent upon the affinity of the particular antagonist for the fat cell membrane receptor.

adipocyte AII receptor = assay: Epididymal adipocyte AII receptor binding (Bmax) after two weeks oral treatment; type: in vivo, rat; details: 4 rats/group, oral once daily for 2 weeks
Protocol: Body weight and food intake are monitored daily. At the end of two weeks, the rats are sacrificed and tissues are weighed. Adipocyte membranes are prepared by collagenase digestion, homogenization and centrfugation.
Binding is initiated by suspending the adipocyte membranes in 0.25% BSA buffer (bovine serum albumin, 50 mM Tris HCl, 5 mM MgCl2,pH 7.4) to a final concentration of 5 ug protein/10 ul buffer. […] The filters are placed in tubes, and radioactivity measured in a gamma scintillation counter programmed to correct for the half-life of the isotope. Using this experimental protocol, both the affinity (KD) and number of binding sites (Bmax) for angiotensin II on the adipocyte membrane can be calculated.

[2] = type: in vivo, rat; details: 15 mg/kg once a day by gavage, two weeks
Protocol: as §1

AII receptor [3] = target: T1, AII receptor; assay: Displacement of 125I[Sar,Ile]AII binding in rat retroperitoneal fat cell membranes
Excerpt: The experimental design involves determining the binding characteristics of adipocyte membranes harvested from two different anatomic sites at three different ages. Male Sprague-Dawley rats (Charles River Laboratories, Wilmington, Mass.) are used at 40, 70 and 100 days of age. Rats are killed by carbon dioxide inhalation on the morning of the experiment, and adipose tissue from the epididymal and retroperitoneal depots is quickly excised and placed in cold saline. The spermatic artery and vein are removed from the epididymal fat, and brown fat deposits are dissected away from the retroperitoneal depot. […] Protein content of the high speed pellet is determined, the resuspended protein is either assayed immediately or stored at -75° before binding assays are performed. […] Separation of bound from free radioactivity is achieved using any appropriate filtration apparatus. […] The filters are placed in tubes, and radioactivity measured in a gamma scintillation counter programmed to correct for the half-life of the isotope. Using this experimental protocol, both the affinity (KD) and number of binding sites (Bmax) for angiotensin II on the adipocyte membrane can be calculated. The relative affinities of different anatomically distinct adipocyte membranes for a variety of peptide and nonpeptide antagonists can also be determined. […]

SMILES | Adipocyte Cell Volume (epididymal adipocytes) | IC50 (AII receptor [1]; Epididymal IC50 for displacement of 125I[Sar,Ile]AII binding, rat epididymal fat cell membranes (Table 8)) | Bmax, epididymal adipocyte AII receptor binding (adipocyte AII receptor) | Avg. Daily Food Intake, % Change From Control [2] | Avg. Weight Gain, % Change From Control [2] | Epididymal Fat Weight, % Change From Control [2] | Final Body Weight, % Change From Control [2] | Retroperitoneal Fat Weight, % Change From Control [2] | Avg. Daily Food Intake ([2]; n = 6) | Avg. Weight Gain ([2]; n = 6) | Epididymal Fat Weight ([2]; n = 6) | Final Body Weight ([2]; n = 6) | Retroperitoneal Fat Weight ([2]; n = 6) | IC50 (AII receptor [3]) | IC50 (AII receptor [1]; Inhibitory Constants (IC50) for displacement of 125I[Sar,Ile]AII binding, Epididymal, rat epididymal fat cell membranes, 1 nM radioligand, 1-4 assays)
CCCCc1nc2ccc([C@@]3(C)C[C@@H]4CCCN4O3)cc2c(=O)n1Cc1ccc(-c2ccccc2-c2nnn[nH]2)cc1 (racemic) [cis-(+/-)-2-butyl-6-(hexahydro-2-methylpyrrolo[1,2-b]isoxazol-2-yl)-3-[[2'-(1H-tetrazol-5-yl)[1,1-biphenyl]-4-yl]methyl]-4(3H)-quinazolinone sodium salt] | 187 p1 | 0.0146 µM | 31.8 fmole/mg protein | -7% | -55% | -17% | -7% | -11% | 30.4 g | 25 g | 4.33 g | 424 g | 4.35 g | – | –
Cc1cc(Cn2cnc3c2C[C@@H](C(=O)O)N(C(=O)C(c2ccccc2)c2ccccc2)C3)ccc1N(C)C [((S)-)-[[4-(di-methylamino)-3-methylphenyl]methyl-5-(diphenylacetyl)-4,5,6,7-tetrahydro-1H-imidazo[4,5-c]-pyridine-6-carboxylic acid, reference compound] | – | – | – | – | – | – | – | – | – | – | – | – | – | 242 µM | 173 µM
